The structures appear in SMILES notation.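 48-hour exposure; five concentrations; linearly interpolated endpoints. GI50: concentration for 50% inhibition of growth. TGI denotes the concentration required for complete inhibition of growth.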

Test in all cases: NCI-60 cell line screen, 48 h
In test [1] the test system is SK-MEL-2 melanoma.
The subject of test [2] is MDA-MB-231 breast.
Test [3] concerns SW-620 colon.
Test [4] concerns MOLT-4 leukemia.
The subject of test [5] is UACC-62 melanoma.
In test [6] the test system is OVCAR-3 ovarian.
For test [7], the system named is SNB-19 CNS.
The subject of test [8] is HT29 colon.
The test system of test [9] is SF-295 CNS.
The subject of test [10] is LOX IMVI melanoma.
Test [11] concerns BT-549 breast.
The test system of test [12] is CCRF-CEM leukemia.

As for `CC(C)(C)OC(=O)N1C(C2=COc3ccccc3O2)=COc2ccccc21`, the TGI turned out to be 53.2 µM in test [1]; 69.6 µM in test [2]; 67.8 µM in test [3]; 54 µM in test [4]; 32.6 µM in test [5]; 47.2 µM in test [6]. Further, the TGI in test [7] is above 100 µM; in test [8], above 100 µM; in test [9], 83.5 µM; in test [10], 37.3 µM; in test [11], 71.4 µM.
Consider `C=C1c2nc3ccccc3n2C=C(c2ccc(Cl)cc2)N1c1ccc(OCCN2CCOCC2)cc1`, for which the TGI was 29.1 µM in test [1]; above 100 µM in test [2]; above 100 µM in test [3]; 99.6 µM in test [5]; above 100 µM in test [6]; above 100 µM in test [7]. The TGI in [8], in test [10] and in [11] was above 100 µM throughout.
For the compound `Cc1nn2c(N)cc(=O)nc2nc1/C=C/c1ccc(N(C)C)cc1`, the TGI in test [1] was above 100 µM; in test [12], 2.41 µM; in test [2], above 100 µM; in test [3] it was above 100 µM; in test [4], above 100 µM; in test [5], above 100 µM. In addition, the TGI in test [7] is above 100 µM; in test [8], above 100 µM; in test [9], above 100 µM; in test [10], 22 µM; in test [11] it was above 100 µM.
As for `O=C(N=Nc1ccc([N+](=O)[O-])cc1)NNc1ccc([N+](=O)[O-])cc1`, the TGI in test [1] was determined as 28.9 µM; in [12], 47.1 µM; in [2], 76.2 µM; in test [3] it was 45.4 µM; in test [4] it was 40.8 µM; in test [5] it was 22.2 µM. In addition, the TGI in test [6] is 59.2 µM; in test [7] it was above 100 µM; in [8], 61.8 µM; in test [10] it was 24.4 µM; in test [11], above 100 µM.
On to `Nn1c(CNc2ccc(-c3nnc(Nc4ccc(Cl)cc4)n3N)cc2)nnc1Nc1ccc(Cl)cc1`, for which the TGI in [1], in test [2], in [3], in test [4], in [5] and in test [7] was above 100 µM each time. For the same compound, the TGI in test [8], in test [9] and in test [11] was above 100 µM each time.
As to `CCCCCCc1nn2c(-c3ccc(C)cc3)nnc2s1`, the TGI in test [1], in test [2], in test [3], in test [4], in [5] and in [6] was above 100 µM each time. Moreover, the TGI in [7], in test [8], in test [9] and in test [11] was above 100 µM in each case.
As for `O=c1oc2ncccc2n1Cc1ccc([N+](=O)[O-])cc1`, the TGI in [1], in test [12], in test [2], in test [3], in test [4] and in [5] was above 100 µM each time. The TGI in test [6], in test [8], in test [9], in test [10] and in [11] was above 100 µM in each case.
As for `COc1cc(N=C(N)N=C(N)N)c2ncccc2c1`, the TGI in test [1], in test [2], in [3], in [5], in [6] and in test [7] was above 100 µM each time. In addition, the TGI in [8], in [9], in test [10] and in test [11] was above 100 µM each time.
For the compound `COc1ccc2c(c1)/C(=C(\C(Cl)=C(Cl)Cl)[N+](=O)[O-])N2`, the TGI was above 100 µM in test [12]; above 100 µM in test [2]; above 100 µM in test [3]; 97.1 µM in test [4]; above 100 µM in test [5]; above 100 µM in test [6]. Moreover, the TGI in test [7], in [8], in test [9], in test [10] and in [11] was above 100 µM throughout.
As to `CCN(CC)CCN1C(=O)c2cccc3c(-c4ccc5c(c4)ncn5C4CCCCC4)ccc(c23)C1=O`, the GI50 in test [12] was 1430 nM; in [2], 1630 nM; in test [4] it was 1100 nM; in test [5], 1560 nM; in [6], 1730 nM; in [9], 1180 nM. Besides, the GI50 in [11] is 922 nM. Further, the TGI was 11.6 µM in test [12]; 3.19 µM in [2]; 3.88 µM in test [4]; 3.03 µM in [5]; 3.64 µM in [6]; 2.69 µM in test [9]. The TGI in test [11] came to 2.3 µM.
Consider `Oc1c(C(O)(c2ccccc2)c2ccc3ccccc3c2O)ccc2ccccc12`, for which the TGI in test [1] was 26.4 µM; in test [2], 33.6 µM; in [3], 41.8 µM; in test [4], 5.56 µM; in test [5], 22.8 µM; in test [6], 30.8 µM. In addition, the TGI in test [7] worked out at 28.7 µM; in test [8] it was 33 µM; in test [9], 47.9 µM; in [10] it was 31.3 µM; in [11] it was 42.3 µM.
For the compound `CN1CCc2c(sc3nc(Nc4ccccc4)n(N)c(=O)c23)C1`, the TGI in [1], in test [12], in test [2], in [4], in test [5] and in test [6] was above 100 µM each time. The TGI in test [7], in test [8], in test [9] and in test [11] was above 100 µM each time.

Values taken from PubChem BioAssay (NCI).
